Test results published in the supplement of paper PMC10307832.

Assays:
Assay in all cases: relative viability (nuclei count vs DMSO), 5 days (fraction); higher = more cells survive
Seliciclib + Crizotinib = compound: CC[C@H](CO)Nc1nc(NCc2ccccc2)c2ncn(C(C)C)c2n1 [Seliciclib] + C[C@@H](Oc1cc(-c2cnn(C3CCNCC3)c2)cnc1N)c1c(Cl)ccc(F)c1Cl [Crizotinib] (partner 1 µM)
In short: (§1)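 Relative viability is defined as nuclei in treated wells over nuclei in vehicle wells. Duplicate plates were run and medians reported. Lung cancer cell lines in 1536-well plates were dosed by pin tool one day after seeding, with one drug or with a fixed anchor-drug dose plus five library-drug doses (not always all listed) in √10 steps, and nuclei were counted after 5 days.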

Seliciclib + Vorinostat = compound: CC[C@H](CO)Nc1nc(NCc2ccccc2)c2ncn(C(C)C)c2n1 [Seliciclib] + O=C(CCCCCCC(=O)Nc1ccccc1)NO [Vorinostat] (partner 1 µM)
In short: as §1

Seliciclib + Dasatinib = compound: CC[C@H](CO)Nc1nc(NCc2ccccc2)c2ncn(C(C)C)c2n1 [Seliciclib] + Cc1nc(Nc2ncc(C(=O)Nc3c(C)cccc3Cl)s2)cc(N2CCN(CCO)CC2)n1 [Dasatinib] (partner 0.075 µM)
In short: as §1

Seliciclib + Pictilisib = compound: CC[C@H](CO)Nc1nc(NCc2ccccc2)c2ncn(C(C)C)c2n1 [Seliciclib] + CS(=O)(=O)N1CCN(Cc2cc3nc(-c4cccc5[nH]ncc45)nc(N4CCOCC4)c3s2)CC1 [Pictilisib] (partner 1 µM)
In short: as §1

In the case of HCC-366, the relative viability (Seliciclib + Crizotinib; first compound 0.08 µM) is reported as 0.477, the relative viability (Seliciclib + Crizotinib; first compound 0.253 µM) is reported as 0.418 and the relative viability (Seliciclib + Crizotinib; first compound 0.8 µM) is reported as 0.497. It also gave a relative viability (Seliciclib + Crizotinib; first compound 2.53 µM) of 0.946, a relative viability (Seliciclib + Crizotinib; first compound 8 µM) of 0.354 and a relative viability (Seliciclib + Vorinostat; first compound 0.08 µM) of 0.317. For the same cell line, the relative viability (Seliciclib + Vorinostat; first compound 0.253 µM) was 0.467, the relative viability (Seliciclib + Vorinostat; first compound 0.8 µM) was 0.377 and the relative viability (Seliciclib + Vorinostat; first compound 2.53 µM) was 0.212. The relative viability (Seliciclib + Vorinostat; first compound 8 µM) was 0.164, the relative viability (Seliciclib + Dasatinib; first compound 0.08 µM) was 0.565 and the relative viability (Seliciclib + Dasatinib; first compound 0.253 µM) was 0.376. The relative viability (Seliciclib + Dasatinib; first compound 0.8 µM) was 0.57, the relative viability (Seliciclib + Dasatinib; first compound 2.53 µM) was 0.381 and the relative viability (Seliciclib + Dasatinib; first compound 8 µM) was 0.473. The relative viability (Seliciclib + Pictilisib; first compound 0.08 µM) was 0.12, the relative viability (Seliciclib + Pictilisib; first compound 0.253 µM) was 0.137 and the relative viability (Seliciclib + Pictilisib; first compound 0.8 µM) was 0.106. It also gave a relative viability (Seliciclib + Pictilisib; first compound 2.53 µM) of 0.109 and a relative viability (Seliciclib + Pictilisib; first compound 8 µM) of 0.163.

Cell Line HCC-827 has a relative viability (Seliciclib + Crizotinib; first compound 0.08 µM) of 0.909, a relative viability (Seliciclib + Crizotinib; first compound 0.253 µM) of 0.914 and a relative viability (Seliciclib + Crizotinib; first compound 0.8 µM) of 0.911. The relative viability (Seliciclib + Crizotinib; first compound 2.53 µM) was 0.931, the relative viability (Seliciclib + Crizotinib; first compound 8 µM) was 0.839 and the relative viability (Seliciclib + Vorinostat; first compound 0.08 µM) was 0.845. The relative viability (Seliciclib + Vorinostat; first compound 0.253 µM) was 0.951, the relative viability (Seliciclib + Vorinostat; first compound 0.8 µM) was 0.912 and the relative viability (Seliciclib + Vorinostat; first compound 2.53 µM) was 0.77. The relative viability (Seliciclib + Vorinostat; first compound 8 µM) was 0.756, the relative viability (Seliciclib + Dasatinib; first compound 0.08 µM) was 0.359 and the relative viability (Seliciclib + Dasatinib; first compound 0.253 µM) was 0.298. For the same cell line, the relative viability (Seliciclib + Dasatinib; first compound 0.8 µM) was 0.258, the relative viability (Seliciclib + Dasatinib; first compound 2.53 µM) was 0.324 and the relative viability (Seliciclib + Dasatinib; first compound 8 µM) was 0.236. It also gave a relative viability (Seliciclib + Pictilisib; first compound 0.08 µM) of 0.953, a relative viability (Seliciclib + Pictilisib; first compound 0.253 µM) of 0.963 and a relative viability (Seliciclib + Pictilisib; first compound 0.8 µM) of 0.811. For the same cell line, the relative viability (Seliciclib + Pictilisib; first compound 2.53 µM) was 1.03 and the relative viability (Seliciclib + Pictilisib; first compound 8 µM) was 0.925.

Cell Line HOP-62 has a relative viability (Seliciclib + Crizotinib; first compound 0.08 µM) of 1.02, a relative viability (Seliciclib + Crizotinib; first compound 0.253 µM) of 0.981 and a relative viability (Seliciclib + Crizotinib; first compound 0.8 µM) of 0.976. For the same cell line, the relative viability (Seliciclib + Crizotinib; first compound 2.53 µM) was 0.781, the relative viability (Seliciclib + Crizotinib; first compound 8 µM) was 0.898 and the relative viability (Seliciclib + Vorinostat; first compound 0.08 µM) was 0.65. It also gave a relative viability (Seliciclib + Vorinostat; first compound 0.253 µM) of 0.623, a relative viability (Seliciclib + Vorinostat; first compound 0.8 µM) of 0.732 and a relative viability (Seliciclib + Vorinostat; first compound 2.53 µM) of 0.479. It also gave a relative viability (Seliciclib + Vorinostat; first compound 8 µM) of 0.437, a relative viability (Seliciclib + Dasatinib; first compound 0.08 µM) of 0.661 and a relative viability (Seliciclib + Dasatinib; first compound 0.253 µM) of 0.58. For the same cell line, the relative viability (Seliciclib + Dasatinib; first compound 0.8 µM) was 0.578, the relative viability (Seliciclib + Dasatinib; first compound 2.53 µM) was 0.603 and the relative viability (Seliciclib + Dasatinib; first compound 8 µM) was 0.653. The relative viability (Seliciclib + Pictilisib; first compound 0.08 µM) was 0.778, the relative viability (Seliciclib + Pictilisib; first compound 0.253 µM) was 0.61 and the relative viability (Seliciclib + Pictilisib; first compound 0.8 µM) was 0.563. The relative viability (Seliciclib + Pictilisib; first compound 2.53 µM) was 0.588 and the relative viability (Seliciclib + Pictilisib; first compound 8 µM) was 0.62.

IA-LM was tested, and the relative viability (Seliciclib + Crizotinib; first compound 0.08 µM) was 0.596, the relative viability (Seliciclib + Crizotinib; first compound 0.253 µM) was 1.17 and the relative viability (Seliciclib + Crizotinib; first compound 0.8 µM) was 0.92. For the same cell line, the relative viability (Seliciclib + Crizotinib; first compound 2.53 µM) was 0.906, the relative viability (Seliciclib + Crizotinib; first compound 8 µM) was 0.622 and the relative viability (Seliciclib + Vorinostat; first compound 0.08 µM) was 0.895. For the same cell line, the relative viability (Seliciclib + Vorinostat; first compound 0.253 µM) was 0.984, the relative viability (Seliciclib + Vorinostat; first compound 0.8 µM) was 0.848 and the relative viability (Seliciclib + Vorinostat; first compound 2.53 µM) was 0.935. The relative viability (Seliciclib + Vorinostat; first compound 8 µM) was 0.867, the relative viability (Seliciclib + Pictilisib; first compound 0.08 µM) was 0.338 and the relative viability (Seliciclib + Pictilisib; first compound 0.253 µM) was 0.412. For the same cell line, the relative viability (Seliciclib + Pictilisib; first compound 0.8 µM) was 0.344, the relative viability (Seliciclib + Pictilisib; first compound 2.53 µM) was 0.346 and the relative viability (Seliciclib + Pictilisib; first compound 8 µM) was 0.232.

Cell Line LC-2-ad has a relative viability (Seliciclib + Crizotinib; first compound 0.08 µM) of 0.442, a relative viability (Seliciclib + Crizotinib; first compound 0.253 µM) of 0.456 and a relative viability (Seliciclib + Crizotinib; first compound 0.8 µM) of 0.479. The relative viability (Seliciclib + Crizotinib; first compound 2.53 µM) was 0.46, the relative viability (Seliciclib + Crizotinib; first compound 8 µM) was 0.404 and the relative viability (Seliciclib + Vorinostat; first compound 0.08 µM) was 0.7. It also gave a relative viability (Seliciclib + Vorinostat; first compound 0.253 µM) of 0.68, a relative viability (Seliciclib + Vorinostat; first compound 0.8 µM) of 0.671 and a relative viability (Seliciclib + Vorinostat; first compound 2.53 µM) of 0.445. It also gave a relative viability (Seliciclib + Vorinostat; first compound 8 µM) of 0.528, a relative viability (Seliciclib + Dasatinib; first compound 0.08 µM) of 0.638 and a relative viability (Seliciclib + Dasatinib; first compound 0.253 µM) of 0.802. It also gave a relative viability (Seliciclib + Dasatinib; first compound 0.8 µM) of 0.63, a relative viability (Seliciclib + Dasatinib; first compound 2.53 µM) of 0.326 and a relative viability (Seliciclib + Dasatinib; first compound 8 µM) of 0.459. It also gave a relative viability (Seliciclib + Pictilisib; first compound 0.08 µM) of 0.487, a relative viability (Seliciclib + Pictilisib; first compound 0.253 µM) of 0.572 and a relative viability (Seliciclib + Pictilisib; first compound 0.8 µM) of 0.34. For the same cell line, the relative viability (Seliciclib + Pictilisib; first compound 2.53 µM) was 0.205 and the relative viability (Seliciclib + Pictilisib; first compound 8 µM) was 0.0269.

With LCLC-97TM1 the relative viability (Seliciclib + Crizotinib; first compound 0.08 µM) was 0.295, the relative viability (Seliciclib + Crizotinib; first compound 0.253 µM) was 0.366 and the relative viability (Seliciclib + Crizotinib; first compound 0.8 µM) was 0.463. For the same cell line, the relative viability (Seliciclib + Crizotinib; first compound 8 µM) was 0.252, the relative viability (Seliciclib + Vorinostat; first compound 0.08 µM) was 0.803 and the relative viability (Seliciclib + Vorinostat; first compound 0.253 µM) was 0.706. It also gave a relative viability (Seliciclib + Vorinostat; first compound 0.8 µM) of 0.82, a relative viability (Seliciclib + Vorinostat; first compound 2.53 µM) of 0.106 and a relative viability (Seliciclib + Vorinostat; first compound 8 µM) of 0.222. The relative viability (Seliciclib + Dasatinib; first compound 0.08 µM) was 0.758, the relative viability (Seliciclib + Dasatinib; first compound 0.253 µM) was 0.965 and the relative viability (Seliciclib + Dasatinib; first compound 0.8 µM) was 0.732. For the same cell line, the relative viability (Seliciclib + Dasatinib; first compound 2.53 µM) was 0.333, the relative viability (Seliciclib + Dasatinib; first compound 8 µM) was 0.704 and the relative viability (Seliciclib + Pictilisib; first compound 0.08 µM) was 0.281. For the same cell line, the relative viability (Seliciclib + Pictilisib; first compound 0.253 µM) was 0.168, the relative viability (Seliciclib + Pictilisib; first compound 0.8 µM) was 0.17 and the relative viability (Seliciclib + Pictilisib; first compound 8 µM) was 0.142.

LCLC-103H was tested, and the relative viability (Seliciclib + Crizotinib; first compound 0.08 µM) was 1.02, the relative viability (Seliciclib + Crizotinib; first compound 0.253 µM) was 1.04 and the relative viability (Seliciclib + Crizotinib; first compound 0.8 µM) was 0.955. It also gave a relative viability (Seliciclib + Crizotinib; first compound 2.53 µM) of 0.975, a relative viability (Seliciclib + Crizotinib; first compound 8 µM) of 0.919 and a relative viability (Seliciclib + Vorinostat; first compound 0.08 µM) of 0.753. It also gave a relative viability (Seliciclib + Vorinostat; first compound 0.253 µM) of 0.764, a relative viability (Seliciclib + Vorinostat; first compound 0.8 µM) of 0.733 and a relative viability (Seliciclib + Vorinostat; first compound 2.53 µM) of 0.448. The relative viability (Seliciclib + Vorinostat; first compound 8 µM) was 0.68, the relative viability (Seliciclib + Dasatinib; first compound 0.08 µM) was 0.535 and the relative viability (Seliciclib + Dasatinib; first compound 0.253 µM) was 0.499. For the same cell line, the relative viability (Seliciclib + Dasatinib; first compound 0.8 µM) was 0.57, the relative viability (Seliciclib + Dasatinib; first compound 2.53 µM) was 0.276 and the relative viability (Seliciclib + Dasatinib; first compound 8 µM) was 0.481. It also gave a relative viability (Seliciclib + Pictilisib; first compound 0.08 µM) of 0.819, a relative viability (Seliciclib + Pictilisib; first compound 0.253 µM) of 0.673 and a relative viability (Seliciclib + Pictilisib; first compound 0.8 µM) of 0.627. For the same cell line, the relative viability (Seliciclib + Pictilisib; first compound 2.53 µM) was 0.434 and the relative viability (Seliciclib + Pictilisib; first compound 8 µM) was 0.576.

LK-2 showed a relative viability (Seliciclib + Crizotinib; first compound 0.08 µM) of 0.246, a relative viability (Seliciclib + Crizotinib; first compound 0.253 µM) of 0.227 and a relative viability (Seliciclib + Crizotinib; first compound 0.8 µM) of 0.205. For the same cell line, the relative viability (Seliciclib + Crizotinib; first compound 2.53 µM) was 0.227, the relative viability (Seliciclib + Crizotinib; first compound 8 µM) was 0.249 and the relative viability (Seliciclib + Vorinostat; first compound 0.08 µM) was 0.33. The relative viability (Seliciclib + Vorinostat; first compound 0.253 µM) was 0.253, the relative viability (Seliciclib + Vorinostat; first compound 0.8 µM) was 0.335 and the relative viability (Seliciclib + Vorinostat; first compound 2.53 µM) was 0.242. The relative viability (Seliciclib + Vorinostat; first compound 8 µM) was 0.204, the relative viability (Seliciclib + Dasatinib; first compound 0.08 µM) was 0.305 and the relative viability (Seliciclib + Dasatinib; first compound 0.253 µM) was 0.414. It also gave a relative viability (Seliciclib + Dasatinib; first compound 0.8 µM) of 0.436, a relative viability (Seliciclib + Dasatinib; first compound 2.53 µM) of 0.226 and a relative viability (Seliciclib + Dasatinib; first compound 8 µM) of 0.217. The relative viability (Seliciclib + Pictilisib; first compound 0.08 µM) was 0.591, the relative viability (Seliciclib + Pictilisib; first compound 0.253 µM) was 0.562 and the relative viability (Seliciclib + Pictilisib; first compound 0.8 µM) was 0.614. For the same cell line, the relative viability (Seliciclib + Pictilisib; first compound 2.53 µM) was 0.541 and the relative viability (Seliciclib + Pictilisib; first compound 8 µM) was 0.447.
